Laboratory results taken from patent publication US20240082200A1, “4-THIOCARBAMOYLPHENYL 2-(4-OXOPHENYL)-PHENYL PROPANOATE FOR THE TREATMENT OF PAIN ASSOCIATED WITH UROLOGIC CHRONIC PELVIC PAIN SYNDROME” (Antibe Therapeutics Inc., priority 2022, published 2024).
Entries after “also recorded” stand apart in the source; their conditions may differ.

Experiments:
[1] = in vivo; cited from earlier work
[2] = system: surgical incision pain model; conditions: mice; cited from earlier work
bladder strips = test: Bladder functional assay in vitro (bladder strips from treated CYP-cystitis mice); type: in vivo, male C57BL/6 SPF mice; conditions: for reduced contractile response of CYP bladder strips to KCl (80 mM): improvement: bladders taken 24 h after CYP
Protocol: The drugs were dissolved in 0.5% CMC at a concentration of 10 ml/kg^−1.
After 24 h, mice with CYP-induced cystitis were euthanized and the bladders were immediately transferred into a petri-dish. […] The bladders were divided into two longitudinal strips and mounted in an isolated organ bath system (Panlab Harvard, Massachussetts, USA) containing Krebs Henseleit solution at 37° C. (pH 7.4, O2/CO2 […] v/v) under a resting tension of 5 mN. Tissues were allowed to stabilize for 1 h, and during this period the bathing solution was replaced every 15 min. Isometric force was recorded using a PowerLab 8/30 Data Acquisition System (Software Chart, version 6.0, ADInstrument, Milford, MA, USA).

periodontitis = conditions: compared with ketoprofen (parent drug); cited from earlier work
gastric mucosa = test: Assessment of gastric lesions in IC/BPS mice; type: in vivo, male C57BL/6 SPF mice; conditions: 3 h after oral dose, compound of Formula I 77 mg kg^-1 / ketoprofen 50 mg kg^-1 (equimolar)
Protocol: Briefly, mice from distinct experimental groups were euthanized by cervical dislocation under isoflurane anesthesia, and the stomach was excised, opened along the smaller curvature, rinsed gently with saline and then photographed with a digital camera (Samsung Galaxy S20, Campinas/SP, Brazil). The hemorrhagic gastric lesion area was measured blindly (mm^2) using computerized planimetry software (ImageJ, Maryland, USA).

[3] = system: cyclophosphamide (CYP)-induced interstitial cystitis; test: Mechanical allodynia (electronic von Frey) in CYP-induced cystitis mice; type: in vivo, male C57BL/6 SPF mice; conditions: for reversal of abdominal mechanical allodynia (withdrawal threshold, AUC 21 to 24 h after CYP): 21 h after CYP
Protocol: Experiments were conducted with male C57BL/6 SPF mice (6-10 weeks of age) obtained from the animal care facilities at the Faculty of Medicine, University of Sao Paulo, Brazil. Mice were randomly separated into different treatment groups (n=5 to 7 per group). Groups of five or fewer mice were kept in Perspex cages under standard controlled conditions (22° C.; 12/12 h light/dark cycle) with free access to food (Nuvilab CR-1, Quimtia S/A, Brazil) and filtered tap water. The study was performed in agreement with the guidelines from the Brazilian Council for Control of Animal Experimentation (CONCEA) guidelines, consistent with the Animal Welfare Act. All the experimental protocols were approved by the local ethics committee (CEUA—ICB; protocol n ° 2055050819). According to the internal laboratory rules, euthanasia was performed if severe distress related to the test agents developed during the experiment.
Cystitis was induced by a single i.p. injection of cyclophosphamide CYP (300 mg kg^−1; Oliveira et al., 2018), while the control group received an i.p. injection of saline (10 ml kg^−1). […] The drugs were dissolved in 0.5% CMC at a concentration of 10 ml/kg^−1.
The mice were individually placed in a clear Perspex testing chamber (11 cm×9.5 cm×18 cm) on an elevated wire grid platform (0.5 cm2 grid) for an adequate acclimatization (˜1 h). Mechanical sensitivity assessment was performed with the aid of an electronic von Frey apparatus (Insight Inc., Ribeiräo Preto, SP, Brazil) with groups of 5-7 mice each, as described previously (Costa et al., 2020). Force-generating pressure was applied to the lower abdomen in the vicinity of the bladder (pelvic region between the urethra and the anus) with a pressure transducer connected to a digital force detector (Insight Ltd, Ribeiräo Preto/SP, Brazil). Retraction of the abdomen (mechanical allodynia) from the probe was considered as a positive response to the stimuli and were recorded in grams (g). […] All mechanical sensitivity testing was performed in a blinded manner. Response threshold data were analyzed via analysis of variance (ANOVA) followed by Tukey's post hoc test. All mice were euthanized with an overdose of isoflurane followed by cervical dislocation.

For `CC(C(=O)Oc1ccc(C(N)=S)cc1)c1ccc(C(=O)c2ccccc2)cc1` (centres unmarked) [compound of Formula I, 4-thiocarbamoylphenyl 2-(4-oxophenyl)-phenyl propanoate], the “GI safety compared to ketoprofen” value [1] is given as “increased GI safety”, the “efficacy over ketoprofen in surgical incision pain model” value [2] is given as “increased efficacy” and the “reduced contractile response of CYP bladder strips to KCl (80 mM): improvement” value (“reduced contractile response” for short) (bladder strips; equimolar dose compound of Formula I 15 mg kg^-1 / ketoprofen 10 mg kg^-1 p.o., vs CYP control) is given as “significantly and dose-dependently increased”. The “reduced contractile response” value (bladder strips; equimolar dose compound of Formula I 46 mg kg^-1 / ketoprofen 30 mg kg^-1 p.o., vs CYP control) was “significantly and dose-dependently increased”, the “reduced maximal (Emax) contractile response elicited by carbachol (CCh) in bladder strips of IC/BPS mice: improvement” value (bladder strips; high doses (compound of Formula I 77 mg kg^-1 / ketoprofen 50 mg kg^-1 p.o.)) was “significantly increased” and the “reduced contractile response” value (bladder strips; high doses: compound of Formula I 77 mg kg^-1 / ketoprofen 50 mg kg^-1 p.o.) was “neither compound of Formula I (77 mg kg^−1) nor ketoprofen (50 mg kg^−1) significantly improved”. The “potency and effectiveness in periodontitis versus parent drug” value (periodontitis) was “more potent and effective”, the “hemorrhagic gastric lesions (gastric mucosal hemorrhagic injury)” value (gastric mucosa) was “did not; also recorded: normal gastric mucosa” and the “reversal of abdominal mechanical allodynia (withdrawal threshold, AUC 21 to 24 h after CYP)” value (“reversal” for short) ([3]; equimolar dose compound of Formula I 15 mg kg^-1 / ketoprofen 10 mg kg^-1, p.o., vs CYP + CMC 0.5%) was “significant dose-dependent differences”. For the same compound, the “reversal” value ([3]; equimolar dose compound of Formula I 46 mg kg^-1 / ketoprofen 30 mg kg^-1, p.o., vs CYP + CMC 0.5%) was “significant dose-dependent differences”, the “reversal” value ([3]; equimolar dose compound of Formula I 77 mg kg^-1 / ketoprofen 50 mg kg^-1, p.o., vs CYP + CMC 0.5%) was “significant dose-dependent differences” and the “analgesic effect as compared to equimolar ketoprofen (mechanical allodynia AUC)” value ([3]; highest equimolar dose, 77 mg kg^-1 p.o. vs ketoprofen 50 mg kg^-1, P<0.001) was “enhanced analgesic effects”. The “anti-hyperalgesic effect on decreased abdominal withdrawal threshold (mechanical allodynia, AUC 21 to 24 h after CYP)” value ([3]; lowest equimolar dose (compound of Formula I 4.6 mg kg^-1 / ketoprofen 3 mg kg^-1), p.o., 21 h after CYP 300 mg kg^-1 i.p., vs CYP + CMC 0.5%) was “no an anti-hyperalgesic effect” and the “potency compared with ketoprofen (abdominal hyperalgesic state and bladder contractile response, CYP-induced IC/BPS model)” value ([3]; orally administered as a single dose) was “greater than that of ketoprofen”.
